Reference: patent US20060069132A1, “Azolecarboxamide herbicides” (priority 2004, published 2006)

Assays:
corn = experiment: Test C pre-/postemergence herbicide test; assay type: in vivo, Zea mays; settings: for Corn plant response rating: 500 g ai/ha
Procedure, shortened: (§1)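 Pre/post spray; non-phytotoxic solvent + surfactant. Post-timing 1–4 leaves, 2–18 cm. Read-out: visual % control vs untreated, day 12–14, greenhouse.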

velvetleaf = experiment: Test C pre-/postemergence herbicide test; assay type: in vivo, Abutilon theophrasti; settings: for Velvetleaf plant response rating: 500 g ai/ha
Procedure, shortened: as §1

redroot pigweed = experiment: Test A pre-/postemergence herbicide test; assay type: in vivo, Amaranthus retroflexus; settings: for Plant response rating, Pigweed: Postemergence; for Pigweed plant response rating: Preemergence
Procedure, shortened: (§2)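 Greenhouse injury scoring (0–100, complete control = 100) at approximately ten days follows simultaneous pre- and postemergence application. Soil received a directed spray after seeding; seedlings of 2–10 cm at the one- to two-leaf stage were sprayed to runoff.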

Surinam grass = experiment: Test C pre-/postemergence herbicide test; assay type: in vivo, Urochloa decumbens; settings: for Plant response rating, Surinam Grass: visual, 12 to 14 days; for Surinam Grass plant response rating: 500 g ai/ha
Procedure, shortened: as §1

pigweed = experiment: Test C pre-/postemergence herbicide test; assay type: in vivo, Amaranthus retroflexus; settings: for Pigweed plant response rating: 500 g ai/ha
Procedure, shortened: as §1

morningglory [1] = experiment: Test A pre-/postemergence herbicide test; assay type: in vivo, Ipomoea spp.; settings: for Plant response rating, Morningglory: Postemergence; for Morningglory plant response rating: Preemergence
Procedure, shortened: as §2

eastern black nightshade = experiment: Test C pre-/postemergence herbicide test; assay type: in vivo, Solanum ptycanthum; settings: for Plant response rating, Nightshade: visual, 12 to 14 days
Procedure, shortened: as §1

morningglory [2] = experiment: Test C pre-/postemergence herbicide test; assay type: in vivo, Ipomoea coccinea; design: key to Plant response rating, Morningglory: 0 = no effect, 100 = complete control; settings: for Morningglory plant response rating: 500 g ai/ha
Procedure, shortened: as §1

johnsongrass = experiment: Test C pre-/postemergence herbicide test; assay type: in vivo, Sorghum halepense; settings: for Johnsongrass plant response rating: 500 g ai/ha
Procedure, shortened: as §1

cocklebur = experiment: Test C pre-/postemergence herbicide test; assay type: in vivo, Xanthium strumarium; settings: for Cocklebur plant response rating: 500 g ai/ha
Procedure, shortened: as §1

chickweed = experiment: Test C postemergence herbicide test; assay type: in vivo, Stellaria media
Procedure, shortened: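 Plants were grown to the 1- to 4-leaf stage (2–18 cm) and then treated postemergence, or grown to the 2-leaf stage for the flooded paddy test. They were held in a greenhouse for 12 to 14 days and then scored by eye against controls, where 0 is no effect and 100 is complete control.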

[3] = 125 g ai/ha, scale 0 (no effect) to 100 (complete control), visual, 12 to 14 days, preemergence
[4] = 250 g ai/ha, scale 0 to 100 (0 no effect, 100 complete control), visual, 12 to 14 days, preemergence
[5] = Postemergence, 125 g ai/ha, scale 0 to 100, 0 no effect, 100 complete control
[6] = Postemergence, 250 g ai/ha, scale 0 to 100, 0 no effect, 100 complete control
[7] = Preemergence, scale 0 to 100, 0 no effect, 100 complete control
[8] = postemergence, 62 g ai/ha, scale 0 to 100
[9] = 500 g ai/ha, 0 to 100 scale, 0 no effect, 100 complete control
[10] = 2000 g ai/ha, 0 to 100 scale, 0 no effect, 100 complete control
[11] = 500 g ai/ha, visual rating, 0 to 100 scale (0 no effect, 100 complete control)
[12] = 125 g ai/ha, scale 0 (no effect) to 100 (complete control), preemergence
[13] = 250 g ai/ha, scale 0 to 100 (0 no effect, 100 complete control), preemergence

CCNC(=O)c1cc(NC(=O)c2cc(C(C)(C)C)nn2CC)ccc1F [Compound 58]
Plant response rating (0 = no effect, 100 = complete control), Corn (corn; 62 g ai/ha, preemergence): 0
Plant response rating, Corn (corn; [3]): 0
Plant response rating, Corn (corn; [4]): 0
Corn plant response rating (corn; Postemergence, scale 0 to 100): 15
Plant response rating, Corn (corn; [5]): 5
Plant response rating, Corn (corn; [6]): 5
Corn plant response rating (corn; [7]): 0
Plant response rating, Corn (corn; [8]): 0
Plant response rating, Velvetleaf (velvetleaf; [3]): 100
Plant response rating, Velvetleaf (velvetleaf; [4]): 100
Velvetleaf plant response rating (velvetleaf; Postemergence, scale 0 to 100): 60
Plant response rating, Velvetleaf (velvetleaf; [6]): 35
Velvetleaf plant response rating (velvetleaf; [7]): 100
Plant response rating, Velvetleaf (velvetleaf; [8]): 10
Plant response rating, Pigweed (redroot pigweed; [9]): 70
Plant response rating, Pigweed (redroot pigweed; [10]): 90
Pigweed plant response rating (redroot pigweed; [11]): 100
Pigweed plant response rating (redroot pigweed; [10]): 100
Plant response rating (0 = no effect, 100 = complete control), Surinam Grass (Surinam grass; 62 g ai/ha, preemergence): 10
Plant response rating, Surinam Grass (Surinam grass; [12]): 55
Plant response rating, Surinam Grass (Surinam grass; [13]): 80
Surinam Grass plant response rating (Surinam grass; Postemergence, scale 0 to 100): 25
Surinam Grass plant response rating (Surinam grass; [7]): 100
Plant response rating (0 = no effect, 100 = complete control), Pigweed (pigweed; 62 g ai/ha, preemergence): 100
Plant response rating, Pigweed (pigweed; [3]): 100
Plant response rating, Pigweed (pigweed; [4]): 100
Pigweed plant response rating (pigweed; Postemergence, scale 0 to 100): 85
Plant response rating, Pigweed (pigweed; [6]): 70
Pigweed plant response rating (pigweed; [7]): 100
Plant response rating, Pigweed (pigweed; [8]): 60
Plant response rating, Morningglory (morningglory [1]; [9]): 10
Plant response rating, Morningglory (morningglory [1]; [10]): 0
Morningglory plant response rating (morningglory [1]; [11]): 20
Morningglory plant response rating (morningglory [1]; [10]): 40
Plant response rating (0 = no effect, 100 = complete control), Nightshade (eastern black nightshade; 62 g ai/ha, preemergence): 95
Plant response rating, Nightshade (eastern black nightshade; [12]): 100
Plant response rating, Nightshade (eastern black nightshade; [13]): 100
Nightshade plant response rating (eastern black nightshade; Preemergence, 500 g ai/ha, scale 0 to 100, 0 no effect, 100 complete control): 100
Plant response rating (0 = no effect, 100 = complete control), Morningglory (morningglory [2]; 62 g ai/ha, preemergence): 10
Plant response rating, Morningglory (morningglory [2]; [3]): 20
Plant response rating, Morningglory (morningglory [2]; [4]): 50
Morningglory plant response rating (morningglory [2]; Postemergence, scale 0 to 100): 20
Plant response rating, Morningglory (morningglory [2]; [6]): 10
Morningglory plant response rating (morningglory [2]; [7]): 80
Plant response rating, Morningglory (morningglory [2]; [8]): 10
Plant response rating (0 = no effect, 100 = complete control), Johnsongrass (johnsongrass; 62 g ai/ha, preemergence): 70
Plant response rating, Johnsongrass (johnsongrass; [3]): 80
Plant response rating, Johnsongrass (johnsongrass; [4]): 90
Johnsongrass plant response rating (johnsongrass; Postemergence, scale 0 to 100): 10
Plant response rating, Johnsongrass (johnsongrass; [5]): 0
Plant response rating, Johnsongrass (johnsongrass; [6]): 5
Johnsongrass plant response rating (johnsongrass; [7]): 100
Plant response rating, Johnsongrass (johnsongrass; [8]): 0
Plant response rating (0 = no effect, 100 = complete control), Cocklebur (cocklebur; 62 g ai/ha, preemergence): 0
Plant response rating, Cocklebur (cocklebur; [3]): 5
Plant response rating, Cocklebur (cocklebur; [4]): 10
Cocklebur plant response rating (cocklebur; Postemergence, scale 0 to 100): 50
Plant response rating, Cocklebur (cocklebur; [5]): 20
Plant response rating, Cocklebur (cocklebur; [6]): 20
Cocklebur plant response rating (cocklebur; [7]): 30
Plant response rating, Cocklebur (cocklebur; [8]): 15
Chickweed plant response rating (chickweed; Postemergence, 500 g ai/ha, scale 0 to 100): 85
Plant response rating, Chickweed (chickweed; [5]): 20
Plant response rating, Chickweed (chickweed; [6]): 50
Plant response rating, Chickweed (chickweed; [8]): 20
